Test results as given in US6914045B2, “Glycopeptide antibiotics” (Wyeth Holdings Corporation, priority 2001, dated 2005).
≈ marks a conversion by molar mass, not a printed value. Read-outs that look alike come from different tables or passages of the source. Numbered stars: 1 amine (or outer) side, 2 acyl side, 3 side chain; on linkers, the order of the positions; unused ones are H or OH. Square brackets hold non-standard residues; d marks the D form. Peptide text beside a SMILES is read from it. ξ: configuration not given here. X1 = N=C1NCC(C(O)C(N[*:1])C(=O)[*:2])N1C1OC(CO)C(O)C(O)C1O; ξEnduracididine(βξ-OH,4'ξ) = N=C1NCC(C(O)C(N)C(=O)O)N1; Tyr(3-NO2) = N[CH](Cc1ccc(O)c([N+](=O)[O-])c1)C(=O)O; Tyr(3,5-Br2) = N[CH](Cc1cc(Br)c(O)c(Br)c1)C(=O)O; ξPhe(βξ-Me) = CC(c1ccccc1)C(N)C(=O)O

What was measured:
Experiment in all cases: in vitro antibacterial evaluation, MIC by broth dilution
Type in all cases: cell-based
Streptococcus sp. = test system: Streptococcus sp.
Protocol: (§1) Methods for in vitro Antibacterial Evaluation (Table 1)
(§2) The minimum inhibitory concentration (MIC), the lowest concentration of the antibiotic which inhibits growth of the test organism, is determined by the broth dilution method using Muller-Hinton II […] (Baltimore Biological Laboratories) following the recommendations of the National Committee for Clinical Laboratory Standards [Methods for dilution antimicrobial susceptibility tests for bacteria that grow aerobically, approved standard M7-A2, National Committee for Clinical Laboratory Standards, Villanova, Pa.].
(§3) An inoculum level of 5×10^5 CFU/mL, and a range of antibiotic concentrations (64-0.06 μg/mL) is used. […] The test organisms include a spectrum of Gram-positive bacteria comprised of Staphylococcus sp., Streptococcus sp. and Enterococcus sp. These organisms include recent clinical isolates that are resistant to methicillin, penicillin and/or vancomycin.

Staphylococcus sp. = test system: Staphylococcus sp.
Protocol: as §1, §2, §3

Enterococcus sp. = test system: Enterococcus sp.
Protocol: as §1, §2, §3

Escherichia coli = test system: Escherichia coli
Summary of the method: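 Broth dilution in Muller-Hinton II medium per NCCLS standard M7-A2, with an inoculum of 5×10^5 CFU/mL and antibiotic tested over 64-0.06 μg/mL. MIC was taken as the lowest concentration inhibiting visible growth.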

[1] = strain GC 4564, broth dilution, 18 hours at 35° C.
[2] = strain GC 4565, broth dilution, 18 hours at 35° C.
[3] = strain ID-3187, broth dilution, 18 hours at 35° C.
[4] = strain ATCC 29212, broth dilution, 18 hours at 35° C.
[5] = strain GC 2242, broth dilution, 18 hours at 35° C.
[6] = strain GC 2243, broth dilution, 18 hours at 35° C.
[7] = strain GC 4552, broth dilution, 18 hours at 35° C.
[8] = strain GC 4553, broth dilution, 18 hours at 35° C.
[9] = strain GC 4554, broth dilution, 18 hours at 35° C.
[10] = strain GC 4556, broth dilution, 18 hours at 35° C.
[11] = strain GC 4557, broth dilution, 18 hours at 35° C.
[12] = strain GC 4558, broth dilution, 18 hours at 35° C.
[13] = strain ATCC 25922, broth dilution, 18 hours at 35° C.
[14] = strain GC 4559, broth dilution, 18 hours at 35° C.
[15] = strain GC 4560, broth dilution, 18 hours at 35° C.

CC(c1ccccc1)C1NC(=O)CNC(=O)C(CO)NC(=O)C(C(O)C2CNC(=N)N2C2OC(CO)C(O)C(O)C2O)NC(=O)C(C(O)C2CNC(=N)N2)NC(=O)C(Cc2cc(Br)c(O)c(Br)c2)NC1=O (stereo not drawn) [Example 3, Cyclo[glycyl-β-methylphenylalanyl-3,5-dibromotyrosyl-3-(2-iminoimidazolidin-4-yl)seryl-3-(3-hexopyranosyl-2-iminoimidazolidin-4-yl)serylseryl]] (cyclo(G[ξPhe(βξ-Me)][Tyr(3,5-Br2)][ξEnduracididine(βξ-OH,4'ξ)][X1]S); configuration not given here)
MIC Streptococcus agalactiae (GC 4564) (Streptococcus sp.; [1]): >128 µg/mL
MIC Streptococcus pneumoniae (GC 4565) (Streptococcus sp.; [2]): >128 µg/mL
MIC Streptococcus pyogenes (ID-3187) (Streptococcus sp.; [3]): >128 µg/mL
MIC Staphylococcus aureus (ATCC 29213) (Staphylococcus sp.; strain ATCC 29213, broth dilution, 18 hours at 35° C.): >128 µg/mL
MIC Staphylococcus aureus (GC 1131) (Staphylococcus sp.; strain GC 1131, broth dilution, 18 hours at 35° C.): >128 µg/mL
MIC Staphylococcus aureus (GC 4541) (Staphylococcus sp.; strain GC 4541, broth dilution, 18 hours at 35° C.): >128 µg/mL
MIC Staphylococcus aureus (GC 4542) (Staphylococcus sp.; strain GC 4542, broth dilution, 18 hours at 35° C.): >128 µg/mL
MIC Staphylococcus aureus-SMITH (GC 4543) (Staphylococcus sp.; strain GC 4543, broth dilution, 18 hours at 35° C.): >128 µg/mL
MIC Staphylococcus aureus (GC 4544) (Staphylococcus sp.; strain GC 4544, broth dilution, 18 hours at 35° C.): >128 µg/mL
MIC Staphylococcus aureus (GC 4545) (Staphylococcus sp.; strain GC 4545, broth dilution, 18 hours at 35° C.): >128 µg/mL
MIC Staphylococcus haemolyticus (GC 4546) (Staphylococcus sp.; strain GC 4546, broth dilution, 18 hours at 35° C.): >128 µg/mL
MIC Coagulase Negative Staphylococcus (GC 4547) (Staphylococcus sp.; strain GC 4547, broth dilution, 18 hours at 35° C.): >128 µg/mL
MIC Coagulase Negative Staphylococcus (GC 4548) (Staphylococcus sp.; strain GC 4548, broth dilution, 18 hours at 35° C.): >128 µg/mL
MIC Coagulase Negative Staphylococcus (GC 4549) (Staphylococcus sp.; strain GC 4549, broth dilution, 18 hours at 35° C.): 128 µg/mL (≈ 113 µM)
MIC Coagulase Negative Staphylococcus (GC 4551) (Staphylococcus sp.; strain GC 4551, broth dilution, 18 hours at 35° C.): >128 µg/mL
MIC Coagulase Negative Staphylococcus (ID-3941) (Staphylococcus sp.; strain ID-3941, broth dilution, 18 hours at 35° C.): 128 µg/mL (≈ 113 µM)
MIC Enterococcus faecalis (ATCC 29212) (Enterococcus sp.; [4]): >128 µg/mL
MIC Enterococcus faecalis (GC 2242) (Enterococcus sp.; [5]): >128 µg/mL
MIC Enterococcus faecium (GC 2243) (Enterococcus sp.; [6]): >128 µg/mL
MIC Enterococcus faecalis (GC 4552) (Enterococcus sp.; [7]): >128 µg/mL
MIC Enterococcus faecalis (GC 4553) (Enterococcus sp.; [8]): >128 µg/mL
MIC Enterococcus faecalis (GC 4554) (Enterococcus sp.; [9]): >128 µg/mL
MIC Enterococcus faecium (GC 4556) (Enterococcus sp.; [10]): >128 µg/mL
MIC Enterococcus faecium (GC 4557) (Enterococcus sp.; [11]): >128 µg/mL
MIC Enterococcus avium (GC 4558) (Enterococcus sp.; [12]): >128 µg/mL
MIC Escherichia coli (ATCC 25922) (Escherichia coli; [13]): >128 µg/mL
MIC Escherichia coli (GC 4559) (Escherichia coli; [14]): >128 µg/mL
MIC Escherichia coli (GC 4560) (Escherichia coli; [15]): 64 µg/mL (≈ 56.7 µM)

CC(c1ccccc1)C1NC(=O)CNC(=O)C(CO)NC(=O)C(C(O)C2CNC(=N)N2C2OC(CO)C(O)C(O)C2O)NC(=O)C(C(O)C2CNC(=N)N2)NC(=O)C(Cc2ccc(OC3OC(CO)C(OC4OC(CO)C(O)C(O)C4O)C(O)C3O)c(I)c2)NC1=O (stereo not drawn) [Example 6, Cyclo[glycyl-β-methylphenylalanyl-O-(4-O-hexolpyranosylhexolpyranosyl)-3-iodo-tyrosyl-3-(2-iminoimidazolidin-4-yl)seryl-3-(3-hexolpyranosyl-2-iminoimidazolidin-4-yl)serylseryl]]
MIC Streptococcus agalactiae (GC 4564) (Streptococcus sp.): >128 µg/mL
MIC Streptococcus pneumoniae (GC 4565) (Streptococcus sp.): >128 µg/mL
MIC Streptococcus pyogenes (ID-3187) (Streptococcus sp.): >128 µg/mL
MIC Coagulase Negative Staphylococcus (GC 4547) (Staphylococcus sp.): >128 µg/mL
MIC Coagulase Negative Staphylococcus (GC 4548) (Staphylococcus sp.): >128 µg/mL
MIC Coagulase Negative Staphylococcus (GC 4549) (Staphylococcus sp.): >128 µg/mL
MIC Coagulase Negative Staphylococcus (GC 4551) (Staphylococcus sp.): >128 µg/mL
MIC Coagulase Negative Staphylococcus (ID-3941) (Staphylococcus sp.): >128 µg/mL
MIC Staphylococcus aureus (ATCC 29213) (Staphylococcus sp.): >128 µg/mL
MIC Staphylococcus aureus (GC 1131) (Staphylococcus sp.): >128 µg/mL
MIC Staphylococcus aureus (GC 4541) (Staphylococcus sp.): >128 µg/mL
MIC Staphylococcus aureus (GC 4542) (Staphylococcus sp.): >128 µg/mL
MIC Staphylococcus aureus (GC 4544) (Staphylococcus sp.): >128 µg/mL
MIC Staphylococcus aureus (GC 4545) (Staphylococcus sp.): >128 µg/mL
MIC Staphylococcus aureus-SMITH (GC 4543) (Staphylococcus sp.): >128 µg/mL
MIC Staphylococcus haemolyticus (GC 4546) (Staphylococcus sp.): >128 µg/mL
MIC Enterococcus avium (GC 4558) (Enterococcus sp.): >128 µg/mL
MIC Enterococcus faecalis (ATCC 29212) (Enterococcus sp.): >128 µg/mL
MIC Enterococcus faecalis (GC 2242) (Enterococcus sp.): >128 µg/mL
MIC Enterococcus faecalis (GC 4552) (Enterococcus sp.): >128 µg/mL
MIC Enterococcus faecalis (GC 4553) (Enterococcus sp.): >128 µg/mL
MIC Enterococcus faecalis (GC 4554) (Enterococcus sp.): >128 µg/mL
MIC Enterococcus faecium (GC 2243) (Enterococcus sp.): >128 µg/mL
MIC Enterococcus faecium (GC 4556) (Enterococcus sp.): >128 µg/mL
MIC Enterococcus faecium (GC 4557) (Enterococcus sp.): >128 µg/mL
MIC Escherichia coli (ATCC 25922) (Escherichia coli): >128 µg/mL
MIC Escherichia coli (GC 4559) (Escherichia coli): >128 µg/mL
MIC Escherichia coli (GC 4560) (Escherichia coli): >128 µg/mL

CC(c1ccccc1)C1NC(=O)CNC(=O)C(CO)NC(=O)C(C(O)C2CNC(=N)N2C2OC(CO)C(O)C(O)C2O)NC(=O)C(C(O)C2CNC(=N)N2)NC(=O)C(Cc2ccc(O)c([N+](=O)[O-])c2)NC1=O (stereo not drawn) [Example 8, Cyclo[glycyl-β-methylphenylalanyl-3-nitrotyrosyl-3-(2-iminoimidazolidin-4-yl)seryl-3-(3-hexopyranosyl-2-iminoimidazolidin-4-yl)serylseryl]] (cyclo(G[ξPhe(βξ-Me)][Tyr(3-NO2)][ξEnduracididine(βξ-OH,4'ξ)][X1]S); configuration not given here)
MIC Streptococcus agalactiae (GC 4564) (Streptococcus sp.; [1]): >128 µg/mL
MIC Streptococcus pneumoniae (GC 4565) (Streptococcus sp.; [2]): >128 µg/mL
MIC Streptococcus pyogenes (ID-3187) (Streptococcus sp.; [3]): >128 µg/mL
MIC Staphylococcus aureus (ATCC 29213) (Staphylococcus sp.; broth dilution, 18 hours at 35° C., strain ATCC 29213): >128 µg/mL
MIC Staphylococcus aureus (GC 1131) (Staphylococcus sp.; broth dilution, 18 hours at 35° C., strain GC 1131): >128 µg/mL
MIC Staphylococcus aureus (GC 4541) (Staphylococcus sp.; broth dilution, 18 hours at 35° C., strain GC 4541): >128 µg/mL
MIC Staphylococcus aureus (GC 4542) (Staphylococcus sp.; broth dilution, 18 hours at 35° C., strain GC 4542): >128 µg/mL
MIC Staphylococcus aureus-SMITH (GC 4543) (Staphylococcus sp.; broth dilution, 18 hours at 35° C., strain GC 4543): >128 µg/mL
MIC Staphylococcus aureus (GC 4544) (Staphylococcus sp.; broth dilution, 18 hours at 35° C., strain GC 4544): >128 µg/mL
MIC Staphylococcus aureus (GC 4545) (Staphylococcus sp.; broth dilution, 18 hours at 35° C., strain GC 4545): >128 µg/mL
MIC Staphylococcus haemolyticus (GC 4546) (Staphylococcus sp.; broth dilution, 18 hours at 35° C., strain GC 4546): >128 µg/mL
MIC Coagulase Negative Staphylococcus (GC 4547) (Staphylococcus sp.; broth dilution, 18 hours at 35° C., strain GC 4547): >128 µg/mL
MIC Coagulase Negative Staphylococcus (GC 4548) (Staphylococcus sp.; broth dilution, 18 hours at 35° C., strain GC 4548): >128 µg/mL
MIC Coagulase Negative Staphylococcus (GC 4549) (Staphylococcus sp.; broth dilution, 18 hours at 35° C., strain GC 4549): >128 µg/mL
MIC Coagulase Negative Staphylococcus (GC 4551) (Staphylococcus sp.; broth dilution, 18 hours at 35° C., strain GC 4551): >128 µg/mL
MIC Coagulase Negative Staphylococcus (ID-3941) (Staphylococcus sp.; broth dilution, 18 hours at 35° C., strain ID-3941): >128 µg/mL
MIC Enterococcus faecalis (ATCC 29212) (Enterococcus sp.; [4]): >128 µg/mL
MIC Enterococcus faecalis (GC 2242) (Enterococcus sp.; [5]): >128 µg/mL
MIC Enterococcus faecium (GC 2243) (Enterococcus sp.; [6]): >128 µg/mL
MIC Enterococcus faecalis (GC 4552) (Enterococcus sp.; [7]): >128 µg/mL
MIC Enterococcus faecalis (GC 4553) (Enterococcus sp.; [8]): >128 µg/mL
MIC Enterococcus faecalis (GC 4554) (Enterococcus sp.; [9]): >128 µg/mL
MIC Enterococcus faecium (GC 4556) (Enterococcus sp.; [10]): >128 µg/mL
MIC Enterococcus faecium (GC 4557) (Enterococcus sp.; [11]): >128 µg/mL
MIC Enterococcus avium (GC 4558) (Enterococcus sp.; [12]): >128 µg/mL
MIC Escherichia coli (ATCC 25922) (Escherichia coli; [13]): >128 µg/mL
MIC Escherichia coli (GC 4559) (Escherichia coli; [14]): >128 µg/mL
MIC Escherichia coli (GC 4560) (Escherichia coli; [15]): >128 µg/mL
